The test system of this assay is Human Pan T Cell (IL-2 release). In words: IL2 released by human pan T cell upon anti-CD3/anti-CD28 stimulation (ELISA). Type of assay: cell-based. The conditions noted are these: human pan T cells; for maximal fold induction / EC (2-fold response) / EC50: Homo sapiens, T-cell; for maximal fold induction / EC (2-fold response): 48 h; for maximal fold induction: response of IL-2 over DMSO control, anti-CD3/anti-CD28, 48 hours, ELISA, read-out: IL-2 Max Fold Response; for EC50: IL-2 response, calculated with GraphPad Prism. An outline of the steps: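 Primary human pan-T cells, negatively isolated from PBMC, plated at 100,000 cells/well and stimulated with immobilized anti-CD3 plus soluble anti-CD28 in presence of test compound at varying concentrations. After 2 days, secreted IL-2 in supernatant quantified by ELISA.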

Where [1] appears, read: concentration of compound that gives 200% IL-2 response (2 folds) over DMSO control.

Molecules are shown by their SMILES.

Consider `COc1cc2c(cc1Nc1ncc(Cl)c(-n3cc(P(C)(C)=O)c4ccccc43)n1)CN(C)CC2` [Example 1, (1-(5-Chloro-2-((6-methoxy-2-methyl-1,2,3,4-tetrahydroisoquinolin-7-yl)amino)pyrimidin-4-yl)-1H-indol-3-yl)dimethylphosphine oxide], for which the maximal fold induction is below 2.

Take `COc1nc2c(cc1Nc1ncc(Cl)c(N3CCc4ccccc43)n1)CN(C)CC2` [Example 19, N-(5-chloro-4-(indolin-1-yl)pyrimidin-2-yl)-2-methoxy-6-methyl-5,6,7,8-tetrahydro-1,6-naphthyridin-3-amine]: the maximal fold induction was above 2 and the EC50 (as a rule, the concentration at which the effect is half-maximal) is 100 to 500 nM. The EC (2-fold response) under setting [1] fell in the range of 0.1 to 0.5 µM.

Regarding `COc1cc2c(cc1Nc1ncc(Cl)c(N3CCc4cc(F)ccc43)n1)CN(C)CC2` [Example 20, N-(5-chloro-4-(5-fluoroindolin-1-yl)pyrimidin-2-yl)-6-methoxy-2-methyl-1,2,3,4-tetrahydroisoquinolin-7-amine], the maximal fold induction is above 2 and the concentration giving a half-maximal response (EC50) was 100 to 500 nM. Besides, the EC (2-fold response) under setting [1] lay in the range of 0.1 to 0.5 µM.

As for `COc1cc2c(cc1Nc1ncc(Cl)c(N3CCc4ccc(F)cc43)n1)CN(C)CC2` [Example 21, N-(5-chloro-4-(6-fluoroindolin-1-yl)pyrimidin-2-yl)-6-methoxy-2-methyl-1,2,3,4-tetrahydroisoquinolin-7-amine], the maximal fold induction was above 2 and the EC50 is 100 to 500 nM. Moreover, the EC (2-fold response) under setting [1] is 0.1 to 0.5 µM.

In the case of `COc1cc2c(cc1Nc1ncc(Cl)c(N3CCc4ccccc43)n1)CN(C(C)C)CC2` [Example 22, N-(5-chloro-4-(indolin-1-yl)pyrimidin-2-yl)-2-isopropyl-6-methoxy-1,2,3,4-tetrahydroisoquinolin-7-amine], the maximal fold induction was above 2 and the EC50 is 500 to 1000 nM. Further, the EC (2-fold response) under setting [1] lay in the range of 0.1 to 0.5 µM.

Turning to `COc1cc2c(cc1Nc1ncc(Cl)c(N3CCc4ccccc43)n1)CNCC2` [Example 23, N-(5-chloro-4-(indolin-1-yl)pyrimidin-2-yl)-6-methoxy-1,2,3,4-tetrahydroisoquinolin-7-amine], the maximal fold induction is below 2 and the EC50 was 100 to 500 nM.

Turning to `COc1cc2c(cc1Nc1ncc(Cl)c(-n3ncc4ccccc43)n1)CN(C)CC2` [Example 24, N-(5-Chloro-4-(1H-indazol-1-yl)pyrimidin-2-yl)-6-methoxy-2-methyl-1,2,3,4-tetrahydroisoquinolin-7-amine], the maximal fold induction is below 2 and the 50% effective concentration (EC50) is 500 to 1000 nM.

As for `COc1cc2c(cc1Nc1ncc(Cl)c(N3CC(C)(C)c4ccccc43)n1)CN(C)CC2` [Example 25, N-(5-Chloro-4-(3,3-dimethylindolin-1-yl)pyrimidin-2-yl)-6-methoxy-2-methyl-1,2,3,4-tetrahydroisoquinolin-7-amine], the maximal fold induction was above 2 and the EC50 was 500 to 1000 nM. Under setting [1], the EC (2-fold response) lay in the range of 0.1 to 0.5 µM.

As for `COc1nc2c(cc1Nc1ncc(Cl)c(N3CCc4ncccc43)n1)CN(C)CC2` [Example 29, N-(5-Chloro-4-(2,3-dihydro-1H-pyrrolo[3,2-b]pyridin-1-yl)pyrimidin-2-yl)-2-methoxy-6-methyl-5,6,7,8-tetrahydro-1,6-naphthyridin-3-amine], the maximal fold induction was below 2 and the EC50 was 500 to 1000 nM.

For the compound `COc1cc2c(cc1Nc1ncc(Cl)c(N3CC(C(=O)O)c4ccccc43)n1)CN(C)CC2` (stereo not drawn) [Example 32, 1-(5-Chloro-2-((6-methoxy-2-methyl-1,2,3,4-tetrahydroisoquinolin-7-yl)amino)pyrimidin-4-yl)indoline-3-carboxylic acid], the maximal fold induction is above 2 and the EC50 was 100 to 500 nM. Also, the EC (2-fold response) under setting [1] fell in the range of 0.1 to 0.5 µM.

As to `COc1cc2c(cc1Nc1ncc(Cl)c(N3CC(C(N)=O)c4ccccc43)n1)CN(C)CC2` (stereo not drawn) [Example 33, 1-(5-Chloro-2-((6-methoxy-2-methyl-1,2,3,4-tetrahydroisoquinolin-7-yl)amino)pyrimidin-4-yl)indoline-3-carboxamide], the maximal fold induction is below 2.

For the compound `COc1cc2c(cc1Nc1ncc(Cl)c(-n3cc(C(N)=O)c4ccccc43)n1)CN(C)CC2` [Example 34], the maximal fold induction is below 2.

In the case of `COc1cc2c(cc1Nc1ncc(Cl)c(-n3cc(C(=O)O)c4ccccc43)n1)CN(C)CC2` [Example 35], the maximal fold induction is above 2 and the EC50 was 500 to 1000 nM. Also, the “EC2x (nM)” value under setting [1] is listed as “+ (“+”, for greater than 1 μM)”.

As for `COc1cc2c(cc1Nc1ncc3ccn(-c4ccccc4)c3n1)CN(C)CC2` [Example 36, 6-methoxy-2-methyl-N-(7-phenyl-7H-pyrrolo[2,3-d]pyrimidin-2-yl)-1,2,3,4-tetrahydroisoquinolin-7-amine], the maximal fold induction is below 2.

In the case of `COc1cc2c(cc1Nc1ncc3ccn(-c4ccccn4)c3n1)CN(C)CC2` [Example 37, 6-Methoxy-2-methyl-N-(7-(pyridin-2-yl)-7H-pyrrolo[2,3-d]pyrimidin-2-yl)-1,2,3,4-tetrahydroisoquinolin-7-amine], the maximal fold induction was below 2 and the EC50 was 100 to 500 nM.

These data come from patent publication US12612424B2, “HPK1 inhibitors and uses thereof” (Regor Pharmaceuticals, Inc., priority 2019, dated 2026).
